Results as given in PubChem BioAssay AID2060602 (Molecular Pharmacology Branch, DTP, NCI, 2025).

System: 648629-189-R-J1-PDC complex spheroids viability
Assay: Anticancer human tumor 648629-189-R-J1-PDC patient-derived bladder carcinoma cell line growth inhibition [CLK]
Settings: for IC50: curve of first compound; for viability, T/C: stronger effect = lower value
Description: A high-throughput screen of multi-cell type tumor spheroids was designed to identify active combinations of […] and targeted small molecules. Complex spheroids include a stromal component modeled by human endothelial cells (HUVEC) and fibroblasts modeled by human mesenchymal stem cells (MSCs). The concentration ranges selected for each drug and investigational agent were based upon clinically achievable concentrations if the clinical Cmax of the agent was known.
Compounds. The drugs and investigational agents: cirtuvivint (SM08502; NSC835563), CC-671 (NSC850746), vemurafenib (NSC761431), tapotoclax (NSC804041), sotorasib (NSC818433), adagrasib (NSC831453), MRTX-1133 (NSC836407), BAY2416964 (NSC825713), copanlisib (NSC816437), inavolisib (NSC800729), abemaciclib (NSC768073), osimertinib (NSC779217), entinostat (NSC756642), eltanexor (KPT-8602, NSC794443), venetoclax (NSC766270), ceralasertib (NSC777638), bortezomib (NSC756655), olaparib (NSC753686), talazoparib (NSC767125), alisertib (NSC759677), peposertib (NSC802822), gemcitabine (NSC613327), 5-fluorouracil (NSC19893), SN-38 (NSC673596), oxaliplatin (NSC266046), paclitaxel (NSC125973), and doxorubicin (NSC123127), were obtained from the National Cancer Institute (NCI) Developmental Therapeutics Program Chemical Repository. The FDA-approved anticancer drug set is available from the Developmental Therapeutics Program at https://dtp.cancer.gov/organization/dscb/obtaining/available plates.htm. […] The stock solutions were prepared in dimethyl sulfoxide (DMSO, Sigma-Aldrich, St. Louis, MO, cat. D2650), except for the platinum complexes which were prepared in saline (Quality Biological, Gaithersburg, MD, cat. 114-055-101), at 800-fold the tested concentration and stored at -70 degrees C prior to their use. All drugs and investigational agents were tested over a range starting from a high concentration at or near the clinical Cmax and decreasing in half-log increments. If the clinical Cmax for an agent had not been determined, the highest concentration tested was 10 microM.
Cell Culture. All cells were maintained in an incubator at 37 degrees C and 5% CO2 with 95% humidity. The PDC lines were cultured according to standard operating procedures established by the NCI PDMR. Briefly, all PDCs were thawed and cultured in Matrigel-coated flasks prepared with a working solution of 1X Ham's F-12 nutrient mix, without supplementation (Invitrogen, Waltham, MA, cat. 11765054), 100 U/mL penicillin-streptomycin (Invitrogen, cat. 15140122), and 2.5% Matrigel (Corning Inc., Corning, NY, cat. 354248) for the first three passages. The 947758-054-R-J2-PDC line was cultured in 6B/Colon 1A media, which includes advanced DMEM/F-12 (Thermo Fisher Scientific, cat. 12634028), 10 mM HEPES (Thermo Fisher Scientific, cat. 15630080), 1X GlutaMAX supplement (Thermo Fisher Scientific, cat. 35050061), 0.1 mg/mL primocin (InvivoGen, cat. ant-pm-2), 10% defined fetal bovine serum, heat inactivated (HyClone Laboratories Inc., cat. SH30070.03HI), 1.25 mM N-Acetyl-L-cysteine (Sigma-Aldrich, cat. A9165), 10 mM nicotinamide (Sigma-Aldrich, cat. N0636), 1X B-27 supplement (Thermo Fisher Scientific, cat. 17504044), 1X N-2 supplement (Thermo Fisher Scientific, cat. 17502048), and 10 microM Y-27632 dihydrochloride (Tocris Bioscience, cat. 1254). The 876862-298-R-J1-PDC was cultured in 6E media, which includes all 6B/Colon 1A media components plus 50% L-WRN conditioned media (ATCC, cat. CRL-3276), 50 ng/mL recombinant human EGF recombinant protein (hEGF; Thermo Fisher Scientific, cat. PHG0311), 10 ng/mL recombinant human fibroblast growth factor 10 (hGFG-10; PeproTech, cat. 100-26), 1 ng/mL recombinant human fibroblast growth factor 2 (hFGF-2; PeproTech, cat. 100-18B), and 1 µM prostaglandin E2 (PGE2; Tocris, cat. 2296). The 227483-062-R1-J1-PDC line was cultured in Panc media, containing all 6E components except hFGF-2, with the addition of 500 nM SB-431542 (Selleckchem, cat. S1067) and 10 nM gastrin (Tocris, cat. 3006). […]

[1] = second compound 0.0316 µM, first compound 0.0316 µM
[2] = second compound 0.0316 µM, first compound 0.1 µM
[3] = second compound 0.1 µM, first compound 0.0316 µM
[4] = second compound 0.1 µM, first compound 0.1 µM
[5] = second compound 0.316 µM, first compound 0.0316 µM
[6] = second compound 0.316 µM, first compound 0.1 µM
[7] = second compound 1 µM, first compound 0.0316 µM
[8] = second compound 1 µM, first compound 0.1 µM
[9] = second compound 3.16 µM, first compound 0.0316 µM
[10] = second compound 3.16 µM, first compound 0.1 µM
[11] = second compound 10 µM, first compound 0.0316 µM
[12] = second compound 10 µM, first compound 0.1 µM
[13] = second compound 0.0316 µM, first compound 0.316 µM
[14] = second compound 0.0316 µM, first compound 1 µM
[15] = second compound 0.0316 µM, first compound 3.16 µM
[16] = second compound 0.0316 µM, first compound 10 µM
[17] = second compound 0.1 µM, first compound 0.316 µM
[18] = second compound 0.1 µM, first compound 1 µM
[19] = second compound 0.1 µM, first compound 3.16 µM
[20] = second compound 0.1 µM, first compound 10 µM
[21] = second compound 0.316 µM, first compound 0.316 µM
[22] = second compound 0.316 µM, first compound 1 µM
[23] = second compound 0.316 µM, first compound 3.16 µM
[24] = second compound 0.316 µM, first compound 10 µM
[25] = second compound 1 µM, first compound 0.316 µM
[26] = second compound 1 µM, first compound 1 µM
[27] = second compound 1 µM, first compound 3.16 µM
[28] = second compound 1 µM, first compound 10 µM
[29] = second compound 3.16 µM, first compound 0.316 µM
[30] = second compound 3.16 µM, first compound 1 µM
[31] = second compound 3.16 µM, first compound 3.16 µM
[32] = second compound 3.16 µM, first compound 10 µM
[33] = second compound 10 µM, first compound 0.316 µM
[34] = second compound 10 µM, first compound 1 µM
[35] = second compound 10 µM, first compound 3.16 µM
[36] = second compound 10 µM, first compound 10 µM
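Throughout, for viability, T/C: drug exposure lasted seven days before viability readout; 100% = DMSO vehicle control wells.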

Cn1ncnc1[C@H]1c2n[nH]c(=O)c3cc(F)cc(c23)N[C@@H]1c1ccc(F)cc1 + CN1CCN(c2cc(C(=O)Nc3cc4cc(-c5cnn(C)c5)ccc4cn3)ccn2)CC1
IC50 (second compound 0.0316 µM): > 100 nM | IC50 (second compound 0.1 µM): > 100 nM | IC50 (second compound 0.316 µM): < 0.316 nM | IC50 (second compound 1 µM): < 0.316 nM | IC50 (second compound 3.16 µM): < 0.316 nM | IC50 (second compound 10 µM): < 0.316 nM | viability, T/C (second compound 0.0316 µM, first compound 0.000316 µM): 129% | viability, T/C (second compound 0.0316 µM, first compound 0.001 µM): 116% | viability, T/C (second compound 0.0316 µM, first compound 0.00316 µM): 107% | viability, T/C (second compound 0.0316 µM, first compound 0.01 µM): 90.2% | viability, T/C [1]: 87.8% | viability, T/C [2]: 69.7% | viability, T/C (second compound 0.1 µM, first compound 0.000316 µM): 111% | viability, T/C (second compound 0.1 µM, first compound 0.001 µM): 97.2% | viability, T/C (second compound 0.1 µM, first compound 0.00316 µM): 94.8% | viability, T/C (second compound 0.1 µM, first compound 0.01 µM): 93.5% | viability, T/C [3]: 87.7% | viability, T/C [4]: 81.2% | viability, T/C (second compound 0.316 µM, first compound 0.000316 µM): 46% | viability, T/C (second compound 0.316 µM, first compound 0.001 µM): 39.1% | viability, T/C (second compound 0.316 µM, first compound 0.00316 µM): 43.5% | viability, T/C (second compound 0.316 µM, first compound 0.01 µM): 40.1% | viability, T/C [5]: 35.3% | viability, T/C [6]: 35.6% | viability, T/C (second compound 1 µM, first compound 0.000316 µM): 0.38% | viability, T/C (second compound 1 µM, first compound 0.001 µM): 0.8% | viability, T/C (second compound 1 µM, first compound 0.00316 µM): 0.73% | viability, T/C (second compound 1 µM, first compound 0.01 µM): 0.22% | viability, T/C [7]: 0.2% | viability, T/C [8]: 1.42% | viability, T/C (second compound 3.16 µM, first compound 0.000316 µM): 0.1% | viability, T/C (second compound 3.16 µM, first compound 0.001 µM): 0.5% | viability, T/C (second compound 3.16 µM, first compound 0.00316 µM): 0.12% | viability, T/C (second compound 3.16 µM, first compound 0.01 µM): 0.08% | viability, T/C [9]: 0.08% | viability, T/C [10]: 0.16% | viability, T/C (second compound 10 µM, first compound 0.000316 µM): 0.12% | viability, T/C (second compound 10 µM, first compound 0.001 µM): 0.13% | viability, T/C (second compound 10 µM, first compound 0.00316 µM): 0.82% | viability, T/C (second compound 10 µM, first compound 0.01 µM): 0.14% | viability, T/C [11]: 0.13% | viability, T/C [12]: 0.15%

C#Cc1c(F)ccc2cc(O)cc(-c3ncc4c(N5CC6CCC(C5)N6)nc(OCC56CCCN5CC(F)C6)nc4c3F)c12 (stereo unspecified) + CN1CCN(c2cc(C(=O)Nc3cc4cc(-c5cnn(C)c5)ccc4cn3)ccn2)CC1
IC50 (second compound 0.0316 µM): > 10000 nM | IC50 (second compound 0.1 µM): > 10000 nM | IC50 (second compound 0.316 µM): 3620 nM | IC50 (second compound 1 µM): < 31.6 nM | IC50 (second compound 3.16 µM): < 31.6 nM | IC50 (second compound 10 µM): < 31.6 nM | viability, T/C [1]: 122% | viability, T/C [2]: 113% | viability, T/C [13]: 103% | viability, T/C [14]: 122% | viability, T/C [15]: 118% | viability, T/C [16]: 105% | viability, T/C [3]: 102% | viability, T/C [4]: 104% | viability, T/C [17]: 99.1% | viability, T/C [18]: 117% | viability, T/C [19]: 99.5% | viability, T/C [20]: 98% | viability, T/C [5]: 50.1% | viability, T/C [6]: 49.4% | viability, T/C [21]: 50.3% | viability, T/C [22]: 54.3% | viability, T/C [23]: 53% | viability, T/C [24]: 39.9% | viability, T/C [7]: 0.6% | viability, T/C [8]: 0.88% | viability, T/C [25]: 0.41% | viability, T/C [26]: 0.41% | viability, T/C [27]: 0.51% | viability, T/C [28]: 0.64% | viability, T/C [9]: 0.13% | viability, T/C [10]: 0.2% | viability, T/C [29]: 0.15% | viability, T/C [30]: 0.14% | viability, T/C [31]: 0.15% | viability, T/C [32]: 0.15% | viability, T/C [11]: 0.36% | viability, T/C [12]: 0.22% | viability, T/C [33]: 0.15% | viability, T/C [34]: 0.19% | viability, T/C [35]: 0.2% | viability, T/C [36]: 0.16%

CC1COCCN1c1cc(C2(S(C)(=N)=O)CC2)nc(-c2ccnc3[nH]ccc23)n1 (stereo unspecified) + CNC(=O)c1ccc(Nc2nc(OC3CCCC3)c3c(-c4ccc5nc(C)oc5c4)c[nH]c3n2)c(OC)c1
IC50 (second compound 0.0316 µM): 2410 nM | IC50 (second compound 0.1 µM): 3430 nM | IC50 (second compound 0.316 µM): < 31.6 nM | IC50 (second compound 1 µM): < 31.6 nM | IC50 (second compound 3.16 µM): < 31.6 nM | IC50 (second compound 10 µM): < 31.6 nM | viability, T/C [1]: 112% | viability, T/C [2]: 115% | viability, T/C [13]: 98.5% | viability, T/C [14]: 83.4% | viability, T/C [15]: 38.6% | viability, T/C [16]: 19.3% | viability, T/C [3]: 90.2% | viability, T/C [4]: 96.3% | viability, T/C [17]: 92.1% | viability, T/C [18]: 74.2% | viability, T/C [19]: 53.5% | viability, T/C [20]: 21.3% | viability, T/C [5]: 28.9% | viability, T/C [6]: 34.6% | viability, T/C [21]: 34.6% | viability, T/C [22]: 32.4% | viability, T/C [23]: 22.4% | viability, T/C [24]: 15.3% | viability, T/C [7]: 20.5% | viability, T/C [8]: 25.6% | viability, T/C [25]: 19.7% | viability, T/C [26]: 19.2% | viability, T/C [27]: 18.9% | viability, T/C [28]: 16% | viability, T/C [9]: 16.4% | viability, T/C [10]: 21.8% | viability, T/C [29]: 22.3% | viability, T/C [30]: 23.1% | viability, T/C [31]: 21.7% | viability, T/C [32]: 13.9% | viability, T/C [11]: 18.6% | viability, T/C [12]: 19.7% | viability, T/C [33]: 20.8% | viability, T/C [34]: 20.1% | viability, T/C [35]: 21.9% | viability, T/C [36]: 12.4%
